In US20260335453A1, “ISOINDOLINONE-GLUTARIMIDE ANTIBODY CONJUGATES, AND USES THEREOF” (FIREFLY BIO, INC., priority 2023, published 2026):

How the values were obtained:
CAL51 cells [1] = assay: Cell proliferation (Cell Titer Glow), CAL51; type: cell-based; conditions: Homo sapiens, CAL-51; IG compounds, cell killing, 72 h
Method: (§1) Exemplary isoindolinone-glutarimide (IG) compounds of Table 1a, 1b and 1c were prepared and characterized according to the Examples herein. Certain exemplary IG compounds of(Table 1a were tested for their effects in inhibiting cellular proliferation, including CAL1 WSU-DLCL2, NCI-N87 and SKBR3. CAL51 is a human breast adenocarcinoma cell line with triple-negative status for expression of estrogen, progesterone and HER2 receptors. WSU-DLCL2 is a human B-Cell non-Hodgkin lymphoma cell line that expresses high levels of CD22. NCI-N87 is a human epithelial cell line established from a gastric carcinoma; SKBR3 is a human epithelial cell line established from a breast adenocarcinoma; both NCI-N87 and SKBR3 cell lines express high levels of HER2 receptor. […]
(§2) One day prior to treatment with compounds or IGAC, cells were plated in white 96-well plates (SKBR: 3000 cells/well; CAL-51: 4000 cells/well). Compounds or ADCs were added in a serial-dilution manner reaching the indicated concentrations. Plates were incubated at 37 degrees for 96h (ADCs) or 72h (compounds) whereafter a 1:10 dilution of Cell Titer Glow was used to measure relative cell numbers after 10 min of incubation at room temperature.

WSU-DLCL2 cells = assay: Cell proliferation (Cell Titer Glow), WSU-DLCL2; type: cell-based; conditions: Homo sapiens, WSUDLCL2; IG compounds, cell killing, 72 h
Method: (§3) Exemplary isoindolinone-glutarimide (IG) compounds of Table 1a, 1b and 1c were prepared and characterized according to the Examples herein. Certain exemplary IG compounds of(Table 1a were tested for their effects in inhibiting cellular proliferation, including CAL1 WSU-DLCL2, NCI-N87 and SKBR3. CAL51 is a human breast adenocarcinoma cell line with triple-negative status for expression of estrogen, progesterone and HER2 receptors. WSU-DLCL2 is a human B-Cell non-Hodgkin lymphoma cell line that expresses high levels of CD22. NCI-N87 is a human epithelial cell line established from a gastric carcinoma; SKBR3 is a human epithelial cell line established from a breast adenocarcinoma; both NCI-N87 and SKBR3 cell lines express high levels of HER2 receptor.
(§4) Exemplary embodiments of the isoindolinone-glutarimide antibody conjugates (IGAC) of Formula I are compiled in Table 3. Assessment of IGAC biological activity and other properties may be conducted according to the methods of Example 102. In some instances, the Cell proliferation dose response IC50 value is an average of repetitive assays. Certain exemplary IGAC were tested for their effects in inhibiting cellular proliferation, including CAL51; WSU-DLCL2, NCI-N87 and SKBR3 cell lines. CAL51 is a human breast adenocarcinoma cell line with triple-negative status for expression of estrogen, progesterone and HER2 receptors. WSU-DLCL2 is a human B-Cell non-Hodgkin lymphoma cell line that expresses high levels of CD22. NCI-N87 is a human epithelial cell line established from a gastric carcinoma; SKBR3 is a human epithelial cell line established from a breast adenocarcinoma; both NCI-N87 and SKBR3 cell lines express high levels of HER2 receptor.
On the day of treatment, 10,000 suspension cells/well were plated in white 96-well plates. Compounds or ADCs were added in a serial-dilution manner reaching the indicated concentrations. Plates were incubated at 37 degrees for 72 h whereafter a 1:10 dilution of Cell Titer Glow was used to measure relative cell numbers after 10 min of incubation at room temperature.

SKBR3 cells [2] = assay: Cell proliferation (Cell Titer Glow), SKBR3; type: cell-based; conditions: Homo sapiens, SK-BR-3; IG compounds, cell killing, 72 h
Method: as §1, §2

NCI-N87 cells = assay: Cell proliferation (Cell Titer Glow), NCI-N87; type: cell-based; conditions: Homo sapiens, IG compounds, cell killing, 72 h
Method: as §3, §4
One day prior to treatment with compounds or IGAC, cells were plated in white 96-well plates (SKBR: 3000 cells/well; CAL-51: 4000 cells/well). Compounds or ADCs were added in a serial-dilution manner reaching the indicated concentrations. […]

CAL51 cells [3] = assay: Degradation assay evaluated by immunofluorescence staining, CAL51; type: cell-based, human; conditions: Homo sapiens, CAL-51, CAL51, 6 h
Method: (§5) One day prior to treatment with compounds, black 96 well plates were coated with fibronectin (0.2 μg/ml in PBS) for 45 min at room temperature and subsequently washed with PBS. CAL-51 or SKBR3 cells were seeded at 30K cells/well (1001) and incubated overnight at 37° C. whereafter compounds were added reaching indicated concentrations. 6 h after treatment the medium was removed, cells were washed with PBS and fixed with 10% formalin for 20 mins at room temperature. Following two PBS washes (150 μl), cells were permeabilized in 0.1% Triton X-100 in PBS for 8 mins at room temperature and subsequently washed again twice with PBS. Cells were blocked thereafter with 1% BSA in PBS for 45 mins. Primary antibody was diluted in blocking buffer and incubated with the cells overnight at 4° C. After three washes with PBS, cells were incubated with secondary antibody for 1 h at RT, washed and subsequently images were taken on an Operetta High-Content Imager.
(§6) For the determination of the DC50, a custom algorithm implemented in the PerkinElmer image analysis software Harmony-Acapella® was used.

SKBR3 cells [4] = assay: Degradation assay evaluated by immunofluorescence staining, SKBR3; type: cell-based; conditions: Homo sapiens, SK-BR-3, SKBR3, 6 h
Method: as §5, §6

Cc1ccc(NC(=O)NCc2ccc3c(c2)CN(C2CCC(=O)NC2=O)C3=O)cc1Cl (centres unmarked) [IG-1, 1-(3-chloro-4-methyl-phenyl)-3-[[2-(2,6-dioxo-3-piperidyl)-1-oxo-isoindolin-5-yl]methyl]urea]
IC50 (CAL51 cells [1]): 10.8 nM
IC50 (WSU-DLCL2 cells): 1.23 nM
IC50 (SKBR3 cells [2]): 1.77 nM
IC50 (NCI-N87 cells): 1.48 nM
DC50 (CAL51 cells [3]): 3.24 ± 2.18 nM
Dmax (CAL51 cells [3]): 101 ± 4.45%
DC50 (SKBR3 cells [4]): < 0.7 nM
Dmax (SKBR3 cells [4]): 95.5 ± 4.9%

O=C1CCC(N2Cc3c(ccc(CNC(=O)Nc4cccc(C5(C(F)(F)F)CC5)c4)c3O)C2=O)C(=O)N1 (centres unmarked) [IG-42, 1-((2-(2,6-dioxopiperidin-3-yl)-4-hydroxy-1-oxoisoindolin-5-yl)methyl)-3-(3-(1-(trifluoromethyl)cyclopropyl)phenyl)urea]
IC50 (CAL51 cells [1]): 25 nM
IC50 (WSU-DLCL2 cells): 1.43 nM
IC50 (SKBR3 cells [2]): 2.73 nM
IC50 (NCI-N87 cells): 2.57 nM
DC50 (CAL51 cells [3]): < 5.41 nM
Dmax (CAL51 cells [3]): 96.1 ± 5.89%
DC50 (SKBR3 cells [4]): 2 nM
Dmax (SKBR3 cells [4]): 88.6%

Cc1ccc(NC(=O)NCc2ccc3c(c2O)CN(C2CCC(=O)NC2=O)C3=O)cc1C(C)C (centres unmarked) [IG-50]
IC50 (WSU-DLCL2 cells): 0.75 nM
IC50 (SKBR3 cells [2]): 1.38 nM
IC50 (NCI-N87 cells): 1.63 nM
DC50 (CAL51 cells [3]): 6.21 nM
Dmax (CAL51 cells [3]): 105%
DC50 (SKBR3 cells [4]): < 0.645 nM
Dmax (SKBR3 cells [4]): 99.6 ± 0.614%
